Assay [1] has as its system HUVEC. Kind of assay: Antiangiogenic activity against HUVEC cells assessed as decrease in healing rate at IC50 incubated for 72 hrs by wound healing assay relative to control. The class given is functional, Homo sapiens. On the set-up: scale not given: the % may be the effect or the level left.
Assay [2] relates to HUVEC. Kind of assay: Antiangiogenic activity against HUVEC cells assessed as wound closure at IC50 incubated for 72 hrs by wound healing assay (reference value: 98.518 %). The assay is classed as functional, Homo sapiens.
Another assay deals with MDA-MB-468. Kind of assay: Induction of apoptosis in human MDA-MB-468 cells assessed as increase in caspase-3 level incubated for 2 hrs by ELISA (reference value: 2.109 ng/ml). The class given is functional. (ELISA stands for enzyme-linked immunosorbent assay.)

For one compound, Activity results are on record in ChEMBL document CHEMBL5356993, “Novel pyrazolo[3,4-d]pyrimidine derivatives: design, synthesis, anticancer evaluation, VEGFR-2 inhibition, and antiangiogenic activity” (RSC Med Chem, 2023).

As to `CCN(CC)CCNC(=O)c1c(C)[nH]c(/C=C2\C(=O)Nc3ccc(F)cc32)c1C` [SUNITINIB], the results for the Activity in the assay on HUVEC [1], with HUVEC [2] and in the assay on MDA-MB-468 were 41%, 57.777% and 21.83 ng/mL, respectively.
